Reference: patent US5688767A, “Treatment of endotoxin-associated disorders with cationic peptides” (priority 1996, dated 1997)

Assay: MIC of common antibiotics in the presence of sub-MIC levels of cationic peptides
Type: cell-based
From the text: The ability of the cationic peptides to work synergistically was examined by determining the MIC values for some commonly used antibiotics in the presence of sub-MIC levels of cationic peptides (Table 4). […] This may be due to the high membrane permeabilizing activity of CEMA (see below). However, the peptides did lower the MIC of polymyxin B, possibly due to the fact that they are all taken up by the same pathway and are therefore aiding each other's uptake. Of interest is the influence that melittin has on the MIC of polymyxin B, given the weak membrane permeabilizing activity of melittin.

Structure (SMILES)	MIC in the presence of (CEMA 0.7 μg/ml) [μg/m1]	MIC in the presence of (CEMA 1.4 μg/ml) [μg/m1]	MIC in the presence of (CEME 0.6 μg/ml) [μg/m1]	MIC in the presence of (CEME 1.2 μg/ml) [μg/m1]	MIC in the presence of (Melittin 2 μg/ml) [μg/m1]	MIC in the presence of (Melittin 4 μg/ml) [μg/m1]	MIC in the presence of (No peptide) [μg/m1]
C[C@@H](O)[C@H]1C(=O)N2C(C(=O)O)=C(SCCN=CN)C[C@H]12 [Imipenem, imipenem]	4	2	4	4	4	4	4
CN(C)[C@@H]1C(O)=C(C(N)=O)C(=O)[C@@]2(O)C(O)=C3C(=O)c4c(O)cccc4[C@@](C)(O)[C@H]3C[C@@H]12 [Tetracycline, tetracycline]	8	4	8	8	8	8	8
